The source of these data is patent US20090221697A1, “MACROLIDE CONJUGATES OF PYRROLIZINE AND INDOLIZINE COMPOUNDS AS INHIBITORS OF 5-LIPOOXYGENASE AND CYCLOOXYGENASE” (MERCKLE GMBH, priority 2005, published 2009).

Data set [1] concerns collagen-induced arthritis in DBA J1 mice. In words: Collagen-induced arthritis (bovine collagen), further experiment, p.o. once daily (Table 3). As to conditions: vehicle = 100%. The class given is in vivo. As to the method:
(§1) Efficacy of drugs in suppressing arthritis may be determined using animal models. The collagen-induced arthritis in rodents is a well established experimental model of rheumatoid arthritis and considered appropriate to test the efficacy of anti-inflammatory drugs. The model is performed by immunising animals with exogenous collagen (e.g. bovine or chick) and administering substances following the appearance of disease. Disease may be boosted to increase response. The data reported herein were generated using the murine model in DBA J1 mice. At day zero a collagen suspension in complete Freund's adjuvant was injected s.c. at the tail base. At day 20, collagen in incomplete Freund's adjuvant was injected at a nearby position on the tail base. When arthritis developed, animals were randomly assigned to treatment groups. Signs monitored included weight, paw score, paw thickness and overall condition. Animals were observed and treated for 10 days. Macrolide conjugates were formulated as solutions in 1.5% citrate, 6% fructose in water.
In a further experiment Arthritis was induced using bovine collagen as described above. Animals were treated with compounds p.o. once daily following positive development of disease. Comparison with control animals (untreated) was made at 9 days after treatment.

For the next data set, the system named is blood cells. In words: Uptake of conjugates into blood cells (buffy coat preparations), LC/MS. The class given is in vitro ADME. Also on record: key: −: excluded from blood cells; +: equal or similar; ++: >5-fold enhancement in blood cells; +++: >10-fold enhancement in blood cells. As to conditions: substrates 1 to 10 μM, 37° C., 5% CO2, screening samples at 0 and 120 minutes. As to the method:
Freshly drawn heparinised blood or buffy coat preparations are used for the determination of conjugate uptake. Buffy coat preparations are preferred. They may be obtained from donor blood by simple centrifugation of whole blood (4795 g for 10 minutes). Following centrifugation, plasma is collected from the surface, after which immune cells are expressed from the donor bags along with the erythrocytes lying immediately below the leukocyte layer. This ensures high yields and a sufficient population of erythrocytes for partition. 5 ml of the resulting cell suspension are dispensed into T25 culture flasks. Substrates are added to a final concentration between 1 and 10 μM and the suspensions incubated at 37° C., in a 5% CO2 atmosphere. For analysis of uptake kinetics, samples are drawn at 0, 2, 5, 10, 30, 60, 90, 180, or 240 min after substrate addition. For screening purposes, samples are taken at 0 and 120 minutes.
Cell fractions were prepared using density gradient centrifugation. Mononuclear cells and polymorphonuclear cells are separated from erythrocytes essentially by layering the cell suspension on a viscous medium typically composed of a solution containing Ficoll or similar (commercial suppliers include: Lymphoprep, Axis Shield, 1031966; Lymphoflot HLA, 824010; or PMN Separation Medium Robbins Scientific 1068-00-0). The layered suspension is then centrifuged at 600 g, 20 min, after which the cell fractions and the plasma (incubation medium) fraction are removed by gentle aspiration, washed twice in PBS buffer, followed by estimation of the cell number and pellet volume.
Uptake of compounds is monitored using chromatographic analysis (LC/MS) with mass selective detection. Uptake is also normalized to the amount of cells based on both estimated volume and total protein. […] The supernatant is recovered and sub-sampled for protein and DNA content. Protein in the supernatant is precipitated by bringing the solution to 100% v/v ethanol and centrifuging again at 16100 g, 10 min. Compound uptake is normalized according to cytoplasmic volume of cells in order to obtain the average concentration in the cells. Cell volume is estimated by correlation of DNA, protein or haem content of lysed cell aliquots to cell number and packed volume prior to lysis.

The subject of data set [2] is collagen-induced arthritis in DBA J1 mice. Put plainly: Collagen-induced arthritis, arthritic score (Table 2). Type of data set: in vivo. Set-up: key: −: healthy paw; +: one joint inflamed; ++: two types of joint inflamed (e.g. tarsal and digit); +++: inflammation of three joints in two separate parts of the paw; ++++: inflammation of whole paw. As to conditions: treated for 10 days after arthritis developed. As to the method:
as §1

Where [3] appears, read: dose 132 μmol/kg p.o. once daily.
The mark [4] stands for this setting: dose 66 μmol/kg p.o. once daily.

`CC1(C)Cc2c(-c3ccccc3)c(-c3ccc(Cl)cc3)c(CC(=O)O)n2C1` [Active moiety alone, licofelone, reference compound]: the “relative score at day 9 after onset of arthritis” value (“relative score” below) in data set [1] (setting [3]) was found to be 90%.

`CC[C@H]1OC(=O)[C@H](C)[C@@H](O)[C@H](C)[C@@H](O[C@@H]2O[C@H](C)C[C@H](N(C)C)[C@H]2OC(=O)Cc2c(-c3ccc(Cl)cc3)c(-c3ccccc3)c3n2CC(C)(C)C3)[C@](C)(O)C[C@@H](C)CN(C)[C@H](C)[C@@H](O)[C@]1(C)O` [Compound 2]: the “relative score” value in data set [1] (setting [4]) is given as 44%.

For `CC[C@H]1OC(=O)[C@H](C)C(=O)[C@H](C)[C@@H](O[C@@H]2O[C@H](C)C[C@H](N(C)C)[C@H]2OC(=O)Cc2c(-c3ccc(Cl)cc3)c(-c3ccccc3)c3n2CC(C)(C)C3)[C@](C)(O)C[C@@H](C)CN(C)[C@H](C)[C@@H](O)[C@]1(C)O` [Compound 4], the “relative score” value turned out to be 76% in data set [1] (setting [4]) and 33% in data set [1] (setting [3]).

Regarding `CC[C@H]1OC(=O)[C@H](C)C(=O)[C@H](C)[C@@H](O[C@@H]2O[C@H](C)C[C@H](N(C)C)[C@H]2OC(=O)Cc2c(-c3cc4ccccc4o3)c(-c3ccccc3)c3n2CC(C)(C)C3)[C@](C)(O)C[C@@H](C)CN(C)[C@H](C)[C@@H](O)[C@]1(C)O` [Compound 5], the “Ratio internal over external concentration” value (shortened to “Ratio internal”) in the data set on blood cells is on record as “+++ (>10-fold enhancement in blood cells)”. The arthitic score entry in data set [2] is recorded as “−”.

Regarding `CC[C@H]1OC(=O)[C@H](C)C(=O)[C@H](C)[C@@H](O[C@@H]2O[C@H](C)C[C@H](N(C)C)[C@H]2OC(=O)Cc2c(-c3ccc(Cl)s3)c(-c3ccccc3)c3n2CC(C)(C)C3)[C@](C)(O)C[C@@H](C)CN(C)[C@H](C)[C@@H](O)[C@]1(C)O` [Compound 8], the “Ratio internal” value in the data set with blood cells is recorded as “++ (>5-fold enhancement in blood cells)”. The arthitic score result in data set [2] is “+”.

Regarding `CC[C@H]1OC(=O)[C@H](C)C2O[C@](C)(C[C@@H](C)CN(C)[C@H](C)[C@@H](O)[C@]1(C)O)[C@H](O[C@@H]1O[C@H](C)C[C@H](N(C)C)[C@H]1OC(=O)Cc1c(-c3ccc(Cl)cc3)c(-c3ccccc3)c3n1CC(C)(C)C3)[C@H]2C` [Compound 9], the “relative score” value amounted to 67% in data set [1] (setting [4]) and 14% in data set [1] (setting [3]).

Turning to `CC1(C)Cc2c(-c3ccccc3)c(-c3cc4ccccc4o3)c(CC(=O)O)n2C1` [Drug component of 5 (without macrolide), (2-benzofuran-2-yl-6,6-dimethyl-1-phenyl-6,7-dihydro-5H-pyrrolizin-3-yl)-acetic acid, reference compound], the “Ratio internal” value in the data set on blood cells is “+”. In addition, the arthitic score entry in data set [2] was “++++”.

As to `CC1(C)Cc2c(-c3ccccc3)c(-c3ccc(Cl)s3)c(CC(=O)O)n2C1` [Drug component of 8 (without macrolide), [2-(5-chloro-thiophen-2-yl)-6,6-dimethyl-1-phenyl-6,7-dihydro-5H-pyrrolizin-3-yl]-acetic acid, reference compound], the “Ratio internal” value in the data set with blood cells is reported as “+”. Also, the arthitic score entry in data set [2] is recorded as “++”.
